# From patent US20070243154A1, “Solubilization of acid ingredients” (L'OREAL, priority 2006, published 2007)
# What was measured:
# [1] = cited from earlier work
# [2] = Solubility of salicylic acid in organic compounds liquid at room temperature; type: physicochemical; conditions: dissolved at 60° C., cooled to room temperature, left 2 hours
# Method: In this example, the solubility of salicylic acid in different liquid materials was compared with mineral oil.
# Preparation of Highly Concentrated Salicylic Acid Solutions
# Salicylic acid was mixed with various organic compounds, liquid at room temperature, and heated to 60° C. The solution was stirred until all the salicylic acid was dissolved and then cooled to room temperature with stirring. The solution was left undisturbed for 2 hours and observed for crystallization.
# The results are expressed by weight of the acid in the dissolving organic compound liquid at room temperature.
compound,measurement,setting,value
"O=C(O)c1ccccc1O [Salicylic acid, 2-hydroxybenzoic acid]",volume of alcohol in which 1 g dissolves,"[1]; ethanol, 1 g dissolves in the stated volume",2.7 mL
same,volume of ether in which 1 g dissolves,"[1]; ether, 1 g in the stated volume",3 mL
same,volume of water in which 1 g dissolves,"[1]; water, 1 g in the stated volume",460 mL
same,solubility of salicylic acid,[2]; in C12-C15 alkyl benzoate,4.8% w/w
same,solubility of salicylic acid,[2]; in glyceryl isostearate,8.25% w/w
same,solubility of salicylic acid,[2]; in isostearic acid,6.5% w/w
same,solubility of salicylic acid,[2]; in isostearyl alcohol,9.9% w/w
same,solubility of salicylic acid,"[2]; in oleic acid, observed for crystallization, by weight of acid in the solvent",5.6% w/w
same,solubility of salicylic acid,[2]; in propylene glycol isostearate,9.9% w/w
